Assay results reported in PubChem BioAssay (NCI).
Where “and” joins values, the source holds several entries; their conditions need not be identical. Identical values can stand only once.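 Growth conditions: 96-well plates. Treatment: test compound, 48 hours, 5 concentrations. Analysis: linear interpolation between bracketing concentrations; unreached endpoints set to highest concentration. GI50 = concentration required for 50% inhibition of growth. TGI denotes the concentration required for complete inhibition of growth.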

Tests used:
Assay in all cases: DTP human tumour cell line panel, 48 h
OVCAR-8 ovarian = tested on: OVCAR-8 ovarian
A498 renal = tested on: A498 renal
MDA-MB-231 breast = tested on: MDA-MB-231 breast
KM12 colon = tested on: KM12 colon
SK-MEL-28 melanoma = tested on: SK-MEL-28 melanoma
EKVX NSCLC = tested on: EKVX NSCLC
HCT-116 colon = tested on: HCT-116 colon
SK-MEL-5 melanoma = tested on: SK-MEL-5 melanoma
SK-OV-3 ovarian = tested on: SK-OV-3 ovarian
SNB-75 CNS = tested on: SNB-75 CNS

Compound	GI50 (OVCAR-8 ovarian)	TGI (OVCAR-8 ovarian)	GI50 (A498 renal)	TGI (A498 renal)	GI50 (MDA-MB-231 breast)	TGI (MDA-MB-231 breast)	GI50 (KM12 colon)	TGI (KM12 colon)	GI50 (SK-MEL-28 melanoma)	TGI (SK-MEL-28 melanoma)	GI50 (EKVX NSCLC)	TGI (EKVX NSCLC)	GI50 (HCT-116 colon)	TGI (SK-MEL-5 melanoma)	GI50 (SK-OV-3 ovarian)	TGI (SK-OV-3 ovarian)	GI50 (SNB-75 CNS)	TGI (SNB-75 CNS)	TGI (HCT-116 colon)	GI50 (SK-MEL-5 melanoma)
Cl.[O-]c1cccc2cccnc12.[O-]c1cccc2cccnc12.[O-]c1cccc2cccnc12.[O-]c1cccc2cccnc12.[Ti+4]	0.779 µM	> 31.5 µM	8.24 µM	21.7 µM	1.26 µM	> 100 µM	2.28 µM	8.04 µM	4.33 µM	> 35.4 µM	0.916 µM	> 27.4 µM	0.355 µM	2.46 µM	3.94 µM	> 73.8 µM	9.55 µM	> 100 µM		
O=[N+]([O-])c1cc(C(F)(F)F)cc2n[se]nc12		4.25 µM		31.5 µM		5.84 µM		20.3 µM		4.39 µM		14.1 µM		8.02 µM		27.5 µM		19.8 µM	3.46 µM	
O=C(O)C1C2C=CC(O2)C1C(=O)NCc1ccncc1 (stereo unspecified)		> 100 µM		> 100 µM		> 100 µM		> 100 µM		> 100 µM		> 100 µM		> 100 µM		> 100 µM		> 100 µM	> 100 µM	
Cc1c(C(=O)/C=C/c2ccc(Cl)cc2)nnn1-c1ccnc2c(C(F)(F)F)cccc12	42.7 µM	> 100 µM	> 100 µM	> 100 µM	17.2 µM	72.7 µM	77.1 µM	> 100 µM	> 100 µM	> 100 µM	76.5 µM	> 100 µM	25.6 µM	> 100 µM	42.1 µM	92.9 µM	15.9 µM	36.5 µM	> 100 µM	53.5 µM
N#Cc1ccc(O)c(C2=NCC(c3ccc(-c4ccccc4)cc3)O2)c1 (stereo unspecified)	0.361 µM	13 µM	0.402 µM	18.5 µM	0.823 µM	18.5 µM	0.462 µM	28.7 µM	1.34 µM	43.8 µM	0.342 µM	10.4 µM	0.462 µM	2.28 µM	0.664 µM	14.4 µM	0.625 µM	14.4 µM	15.2 µM	0.532 µM
CC(C)c1ccc(C(c2c(O)c3ccccc3oc2=O)c2c(O)c3ccccc3oc2=O)cc1		42.5 µM		35.4 µM		45.6 µM		40.4 µM		40 µM		55.2 µM		31.3 µM		65.8 µM		75.8 µM	33.2 µM	
COc1ccc(C(=O)/C=C/c2c(C(F)(F)F)nc3ccccn23)cc1OC	1.06 µM	> 25.1 µM	3.46 µM	21.7 µM	3.06 µM	8.55 µM	0.646 µM	7.42 µM	7.1 µM	> 100 µM	3.39 µM	> 100 µM	0.561 µM	20.1 µM	2.38 µM	6.13 µM	2.01 µM	6.77 µM	4.26 µM	2.1 µM
COc1ccc(C2CC(c3ccc4ccccc4c3)=NN2c2nc(O)c(C3=c4cc(Cl)ccc4=NC3=O)s2)cc1 (stereo unspecified)	0.0328 µM		0.0166 µM and < 0.005 µM	0.0419 µM and < 0.005 µM	0.021 µM	0.0462 µM	0.0236 µM and < 0.005 µM		0.0258 µM and < 0.005 µM		0.0313 µM and < 0.005 µM		0.0338 µM and < 0.005 µM	0.0337 µM and < 0.005 µM	0.0217 µM and < 0.005 µM		0.0171 µM	0.0408 µM	0.122 µM and 0.107 µM	0.0175 µM and < 0.005 µM
CCOC(=O)Nc1cc2c(c(N)n1)N=C(c1ccccc1)CN2		> 100 µM		22.2 µM	< 0.0001 µM	0.00463 µM	< 0.0001 µM	49 µM		39.9 µM	< 0.0001 µM	46.6 µM	< 0.0001 µM	< 0.0001 µM	0.0207 µM	17.5 µM		31 µM		< 0.0001 µM
CN(C)c1ccc(/C=N/n2c(CCCCc3n[nH]c(=S)n3/N=C/c3ccc(N(C)C)cc3)n[nH]c2=S)cc1	> 100 µM	> 100 µM	> 100 µM	> 100 µM	41.3 µM	> 100 µM	> 100 µM	> 100 µM	> 100 µM	> 100 µM	> 100 µM	> 100 µM	> 100 µM	> 100 µM	> 100 µM	> 100 µM	30.2 µM	> 100 µM	> 100 µM	> 100 µM
COc1ccc(Cl)cc1Nc1nc(C(F)(F)F)ccc1C(=O)N/N=C/c1ccccc1Cl	2.4 µM	> 31 µM	3.44 µM	19.5 µM	2.09 µM	10.9 µM	2.81 µM	> 28 µM	4.5 µM	> 100 µM	2.04 µM	7.22 µM	2.81 µM	2.96 µM	1.58 µM	12.5 µM	7.32 µM	> 100 µM	> 100 µM	0.583 µM
C=C1C(=O)O[C@H]2C3OC3(C)CC/C=C(/C(=O)OC)[C@@H](OC(C)=O)[C@H](OC(=O)C3(C)OC3C)[C@H]12 (stereo partly specified)	2.13 µM and 699 nM and 0.351 µg/mL	2.98 µM and 3.01 µg/mL	1.69 µM and 2.85 µg/mL	4.26 µM and 5.4 µg/mL	1.23 µM	5.9 µM and 4.71 µM	9.13 µM and 370 nM and 2.36 µg/mL	1.64 µM and 7.08 µg/mL	1.06 µM and 1.74 µM and 0.336 µg/mL	3.55 µM and 9.53 µM and 0.779 µg/mL	5.71 µM and 4.57 µM and 3.81 µg/mL	26.8 µM and 9.61 µg/mL	1.17 µM and 668 nM and 0.444 µg/mL	3.87 µM and 7.72 µM and 9.58 µg/mL	9.25 µM and 26.5 µg/mL	18.9 µM and 48 µg/mL	5.54 µM and 11.2 µM and 2.27 µg/mL	21.8 µM and 4.68 µg/mL	2.39 µM and 1.67 µM and 1.19 µg/mL	1.88 µM and 1.91 µM and 2.6 µg/mL
COc1ccc2c(c1)C(=O)/C(=C/c1cccc(OCC(=O)c3ccc([N+](=O)[O-])cc3)c1)CO2	2.85 µM	9.66 µM	14.3 µM	27.3 µM	3.67 µM	14.2 µM	1.56 µM	3.26 µM	1.86 µM	3.7 µM	7.68 µM	21.9 µM	1.33 µM	8.05 µM	10.5 µM	23 µM	1.83 µM	8.09 µM	2.67 µM	2.79 µM
COC(=O)c1cc2c([nH]c3ccccc32)c(-c2nc3ccccc3cc2CO)n1	> 100 µM	> 100 µM	30.4 µM	> 100 µM	40 µM	> 100 µM	> 100 µM	> 100 µM	> 100 µM	> 100 µM	> 100 µM	> 100 µM	7.93 µM	> 100 µM	55.9 µM	> 100 µM	40.1 µM	> 100 µM	> 100 µM	50.3 µM
CCCCNP1(NCCCC)=NP(NCCCC)(NCCCC)=NP(NCCCC)(NCCCC)=NP(NCCCC)(NCCCC)=N1	1.98 µM	17.4 µM	1.93 µM	8.01 µM	0.418 µM	4.08 µM	0.355 µM	4.27 µM	2.64 µM	8.68 µM	0.25 µM	6.17 µM	0.209 µM	1.89 µM	1.07 µM	9.75 µM	3.13 µM	15.8 µM	0.81 µM	0.541 µM
Cn1c2ccccc2c2c(=O)n(CCCC(=O)NCCc3cnc[nH]3)c3c(-c4ccccc4)nnn3c21	10.1 µM	20.8 µM	7.58 µM	15.2 µM	9.27 µM	18.6 µM	8.16 µM	16.9 µM	8.86 µM	16.9 µM	10 µM	23.9 µM	5.95 µM	17.2 µM	10.2 µM	18.7 µM	10.4 µM	18.6 µM	13.8 µM	9.09 µM
CN(CO)c1nc(N(C)CO)nc(N(C)CO)n1	23.6 µM	55.6 µM and 38.4 µM		60.7 µM and 54 µM	18.3 µM	42.9 µM and 46.9 µM		47.7 µM and 31.8 µM	18.3 µM	36.7 µM and 28.4 µM	41.8 µM	> 81.5 µM and 77.7 µM	21.7 µM and 11.7 µM	32.2 µM and 33.8 µM	59.1 µM	> 82.1 µM and 54.2 µM	16.4 µM	53.3 µM and 32 µM	53.2 µM and 47.3 µM	18.1 µM
CCc1nc(N)nc(N)c1-c1ccc(N(C)Cc2ccccc2)c([N+](=O)[O-])c1		30 µM		19.8 µM		36.1 µM		16.3 µM		17 µM		35 µM		4.32 µM		33.6 µM		19.5 µM	10 µM	
O=C1/C=C/[C@@H](O)[C@@H]2C[C@@H](O)C[C@H]2/C=C/CCC[C@H](CCc2ccc(NC(=S)Nc3ccc4c(c3)C(=O)OC43c4ccc(O)cc4Oc4cc(O)ccc43)cc2)O1	0.401 µM	> 100 µM	0.141 µM	0.458 µM	0.21 µM	0.402 µM	0.322 µM	0.971 µM	0.263 µM	0.815 µM	0.409 µM	> 100 µM	0.523 µM	0.311 µM	0.578 µM	> 100 µM	0.252 µM	> 100 µM	4.95 µM	0.164 µM
Cc1cc(C(=O)CC(Cl)=C(Cl)Cl)c(Cl)cc1Cl	21.7 µM	46.3 µM	18.2 µM	51.5 µM	23.4 µM	46.2 µM	18.2 µM	42.1 µM	33.5 µM	> 100 µM	19 µM	47.7 µM	19.1 µM	39.9 µM	49.8 µM	> 100 µM	34.8 µM	> 100 µM	33.2 µM	18 µM
CCCn1cc(/C=N\N=C2\C(=O)Nc3ccc(C)cc32)c2ccccc21	5.41 µM	> 100 µM	1.37 µM	7.5 µM	1.81 µM	7.4 µM	3.22 µM	19.7 µM	4.7 µM	36.9 µM	2.36 µM	> 100 µM	1.75 µM	13.5 µM	11.7 µM	67.1 µM	2.31 µM	46 µM	4.17 µM	2.86 µM
